Target: T1, recombinant human pancreatic GLK (Homo sapiens, UniProt P35557)
T1 sequence (P35557 1-465): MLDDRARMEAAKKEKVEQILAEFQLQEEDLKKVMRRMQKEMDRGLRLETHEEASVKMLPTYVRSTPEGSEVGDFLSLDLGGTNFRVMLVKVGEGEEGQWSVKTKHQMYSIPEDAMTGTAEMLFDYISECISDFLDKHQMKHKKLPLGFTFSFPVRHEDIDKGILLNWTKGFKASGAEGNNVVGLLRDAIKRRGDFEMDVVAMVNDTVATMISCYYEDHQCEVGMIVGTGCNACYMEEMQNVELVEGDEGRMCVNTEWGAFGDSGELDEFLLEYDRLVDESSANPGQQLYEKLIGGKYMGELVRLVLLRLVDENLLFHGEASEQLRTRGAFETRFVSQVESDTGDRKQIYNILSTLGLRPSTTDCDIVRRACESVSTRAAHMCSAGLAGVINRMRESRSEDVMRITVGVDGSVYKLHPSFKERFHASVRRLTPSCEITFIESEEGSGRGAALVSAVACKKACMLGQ
Experiment: biochemical

Compared with Cc1cnc(NC(=O)[C@H](COC2CCC2)Oc2ncnc3c2cnn3-c2ncccc2Cl)cn1 [Example 157, (2S)-2-(1-(3-chloropyridin-2-yl)-1H-pyrazolo[3,4-d]pyrimidin-4-yloxy)-3-cyclobutoxy-N-(5-methylpyrazin-2-yl)propanamide], C[C@@H](CO)OC[C@H](Oc1ncnc2c1cnn2-c1ncccc1Cl)C(=O)Nc1ccc(Cl)cn1 [Example 193, (2S)—N-(5-chloropyridin-2-yl)-2-(1-(3-chloropyridin-2-yl)-1H-pyrazolo[3,4-d]pyrimidin-4-yloxy)-3-((S)-1-hydroxypropan-2-yloxy)propanamide] is 24-fold higher in EC50: 140 nM for the first, 3300 nM for the second. The first is the more potent here.

First: O=C(Nc1ccccn1)[C@H](COCCO)Oc1ncnc2c1cnn2-c1ccccc1Cl [Example 201, (2S)-2-(1-(2-chlorophenyl)-1H-pyrazolo[3,4-d]pyrimidin-4-yloxy)-3-(2-hydroxyethoxy)-N-(pyridin-2-yl)propanamide]
Second: O=C(Nc1ccccn1)[C@H](COCCO)Oc1ncnc2c1cnn2-c1c(Cl)cccc1Cl [Example 250, (2S)-2-[1-(2,6-dichlorophenyl)pyrazolo[3,4-d]pyrimidin-4-yl]oxy-3-(2-hydroxyethoxy)-N-(2-pyridyl)propanamide]
The EC50 of the first is 2.8-fold higher: 650 nM for the first, 230 nM for the second.

Compared with O=C(Nc1ccc(Cl)cn1)[C@H](CCO)Oc1ncnc2c1cnn2-c1ncccc1Cl [Example 143b, (2S)-N-(5-chloro-2-pyridyl)-2-[1-(3-chloro-2-pyridyl)pyrazolo[4,5-e]pyrimidin-4-yl]oxy-4-hydroxy-butanamide], O=C(Nc1ccc(Cl)cn1)[C@H](CCCO)Oc1ncnc2c1cnn2-c1ncccc1Cl [Example 212, (2S)—N-(5-chloropyridin-2-yl)-2-(1-(3-chloropyridin-2-yl)-1H-pyrazolo[3,4-d]pyrimidin-4-yloxy)-5-hydroxypentanamide] is 1.9-fold higher in EC50: 260 nM for the first, 490 nM for the second.

Going from O=C(Nc1ccc(F)cn1)[C@H](CN1CC(O)C1)Oc1ncnc2c1cnn2-c1ncccc1Cl [Example 243, (2S)-2-[1-(3-chloro-2-pyridyl)pyrazolo[3,4-d]pyrimidin-4-yl]oxy-N-(5-fluoro-2-pyridyl)-3-(3-hydroxyazetidin-1-yl)propanamide] to O=C(Nc1ccc(F)cn1)[C@H](CN1CC(O)C1)Oc1ncnc2c1cnn2-c1ccccc1Cl [Example 215, (2S)-2-[1-(2-chlorophenyl)pyrazolo[4,5-e]pyrimidin-4-yl]oxy-N-(5-fluoro-2-pyridyl)-3-(3-hydroxyazetidin-1-yl)propanamide], the EC50 falls from 570 nM to 229 nM (2.5-fold).

Cc1ccccc1-n1nnc2c(O[C@@H](COCCO)C(=O)Nc3ccc(Cl)cn3)ncnc21 [Example 198, (2S)—N-(5-chloropyridin-2-yl)-3-(2-hydroxyethoxy)-2-(3-o-tolyl-3H-[1,2,3]triazolo[4,5-d]pyrimidin-7-yloxy)propanamide] and Cc1ccc(NC(=O)[C@H](COCCO)Oc2ncnc3c2nnn3-c2ccccc2Cl)nc1 [Example 195, (2S)-2-(3-(2-chlorophenyl)-3H-[1,2,3]triazolo[4,5-d]pyrimidin-7-yloxy)-3-(2-hydroxyethoxy)-N-(5-methylpyridin-2-yl)propanamide] are within 1.5-fold of each other in EC50: 2200 nM for the first, 2000 nM for the second.

Compared with Cc1nc(NC(=O)[C@H](COC(C)C)Oc2ncnc3c2cnn3-c2ncccc2Cl)nn1C [(2S)-2-[1-(3-chloro-2-pyridyl)pyrazolo[4,5-e]pyrimidin-4-yl]oxy-N-(1,5-dimethyl-1,2,4-triazol-3-yl)-3-isopropoxy-propanamide], CC(C)OC[C@H](Oc1ncnc2c1cnn2-c1ncccc1Cl)C(=O)Nc1ccccn1 [Example 127k, (2S)-2-[1-(3-chloro-2-pyridyl)pyrazolo[4,5-e]pyrimidin-4-yl]oxy-3-isopropoxy-N-(2-pyridyl)propanamide] is lower in EC50: > 100000 nM for the first, 560 nM for the second.

First: Cc1cc(NC(=O)C(COC(C)C)Oc2ncnc3c2cnn3-c2ccccc2Cl)no1 (stereo not shown) [Example 110, 2-[1-(2-chlorophenyl)pyrazolo[4,5-e]pyrimidin-4-yl]oxy-3-isopropoxy-N-(5-methylisoxazol-3-yl)propanamide]
Second: CC(C)OC[C@H](Oc1ncnc2c1cnn2-c1ccccc1Cl)C(=O)Nc1ccc(F)cn1 [Example 112a, (2S)-2-[1-(2-chlorophenyl)pyrazolo[4,5-e]pyrimidin-4-yl]oxy-N-(5-fluoro-2-pyridyl)-3-isopropoxy-propanamide]
The EC50 of the first is 4.5-fold higher: 1000 nM for the first, 220 nM for the second. The second is the more potent here.

First: COCC[C@H](Oc1ncnc2c1cnn2-c1cccc(OC)c1)C(=O)Nc1ccc(C)cn1 [Example 15, (S)-4-methoxy-2-{[1-(3-methoxyphenyl)-1H-pyrazolo[3,4-d]pyrimidin-4-yl]oxy}-N-(5-methylpyridin-2-yl)butanamide]
Second: COCCC(Oc1ncnc2c1cnn2-c1ccccc1C)C(=O)Nc1ccc(C)cn1 (stereo not shown) [Example 16, 4-methoxy-2-{[1-(2-methylphenyl)-1H-pyrazolo[3,4-d]pyrimidin-4-yl]oxy}-N-(5-methylpyridin-2-yl)butanamide]
The EC50 of the first is 9.3-fold higher: 2700 nM for the first, 290 nM for the second.

First: N#Cc1cccc(Cl)c1-n1ncc2c(O[C@@H](CN3CC(O)C3)C(=O)Nc3ccc(Cl)cn3)ncnc21 [Example 240, (2S)-2-[1-(2-chloro-6-cyano-phenyl)pyrazolo[3,4-d]pyrimidin-4-yl]oxy-N-(5-chloro-2-pyridyl)-3-(3-hydroxyazetidin-1-yl)propanamide]
Second: O=C(Nc1ccc(F)cn1)[C@H](CN1CC(O)C1)Oc1ncnc2c1cnn2-c1c(F)cccc1Cl [Example 229, (2S)-2-[1-(2-chloro-6-fluoro-phenyl)pyrazolo[3,4-d]pyrimidin-4-yl]oxy-N-(5-fluoro-2-pyridyl)-3-(3-hydroxyazetidin-1-yl)propanamide]
The EC50 of the first is 4.1-fold higher: 450 nM for the first, 110 nM for the second. The second is the more potent here.

Going from O=C(Nc1ccc(F)cn1)[C@H](COCCO)Oc1ncnc2c1cnn2-c1c(Cl)cccc1Cl [Example 218, (2S)-2-[1-(2,6-dichlorophenyl)pyrazolo[4,5-e]pyrimidin-4-yl]oxy-N-(5-fluoro-2-pyridyl)-3-(2-hydroxyethoxy)propanamide] to Cc1ccc(C)c(-n2ncc3c(O[C@@H](COCCO)C(=O)Nc4ccc(Cl)cn4)ncnc32)c1 [Example 179, (2S)—N-(5-chloropyridin-2-yl)-2-(1-(2,5-dimethylphenyl)-1H-pyrazolo[3,4-d]pyrimidin-4-yloxy)-3-(2-hydroxyethoxy)propanamide], the EC50 rises from 215 nM to 620 nM (2.9-fold).

Cc1cnc(NC(=O)[C@H](CN2CC(O)C2)Oc2ncnc3c2cnn3-c2ncccc2Cl)s1 [Example 249, (2S)-2-[1-(3-chloro-2-pyridyl)pyrazolo[3,4-d]pyrimidin-4-yl]oxy-3-(3-hydroxyazetidin-1-yl)-N-(5-methylthiazol-2-yl)propanamide] and CC(=O)OCC[C@H](Oc1ncnc2c1cnn2-c1ncccc1Cl)C(=O)Nc1ccc(C)cn1 [Example 159, [(3S)-3-[1-(3-chloropyridin-2-yl)pyrazolo[4,5-e]pyrimidin-4-yl]oxy-4-[(5-methylpyridin-2-yl)amino]-4-oxobutyl]acetate] are within 1.5-fold of each other in EC50: 590 nM for the first, 850 nM for the second.

Compared with CC(C)OC[C@H](Oc1ncnc2c1cnn2-c1ncccc1Cl)C(=O)Nc1ccc(C(=O)N(C)C)cn1 [Example 178, 6-((2S)-2-(1-(3-chloropyridin-2-yl)-1H-pyrazolo[3,4-d]pyrimidin-4-yloxy)-3-isopropoxypropanamido)-N,N-dimethylnicotinamide], Cc1ccc(NC(=O)[C@@H](Oc2ncnc3c2cnn3-c2ncccc2Cl)C(C)C)nc1 [Example 86, (2S)-2-(1-(3-chloropyridin-2-yl)-1H-pyrazolo[3,4-d]pyrimidin-4-yloxy)-3-methyl-N-(5-methylpyridin-2-yl)butanamide] is 2.9-fold lower in EC50: 4300 nM for the first, 1500 nM for the second. The second is the more potent here.

Cc1ccc(C#N)cc1-n1ncc2c(O[C@@H](COCCO)C(=O)Nc3ccc(Cl)cn3)ncnc21 [Example 185, (2S)—N-(5-chloropyridin-2-yl)-2-(1-(5-cyano-2-methylphenyl)-1H-pyrazolo[3,4-d]pyrimidin-4-yloxy)-3-(2-hydroxyethoxy)propanamide] gave an EC50 of 3700 nM.
